Experimental data published in article PMC8410836, “Rational design of hyperstable antibacterial peptides for food preservation” (NPJ Science of Food, 2021).
Converted amounts (≈) assume the structure as drawn. Like-named read-outs stand apart in the source and are kept apart here. Where a SMILES comes first, the peptide text is derived from it. Bridges are numbered along the chain shown (N, C = ends).

How the values were obtained:
B. cereus [1] = assay: Propidium iodide (PI) uptake assay; assay type: cell-based, Bacillus cereus; conditions: peptides at 2X MIC, Fig. 4e; three biological replicates
Experimental: B. cereus and M. luteus were grown in MH broth to logarithmic phase of growth and then diluted to OD600 ~ 0.25. Serial dilutions of the antimicrobial peptides (final concentrations, 0–100 μg/mL) were added to the wells of a black-walled microplate. Hundred microliters of the bacterial suspension containing PI (final concentration, 10 μM) was added to the wells. The emitted fluorescence was measured at excitation and emission wavelengths of 585 and 620 nm, respectively, for 2 h using a multimode plate reader (Varioskan Flash, Thermo Scientific, USA). The percentage of membrane permeabilization was calculated as the percent of fluorescent intensity of peptide-treated samples with respect to fluorescence intensity of PI-loaded, peptide untreated samples. PI uptake assays were performed as three independent experiments in triplicates.

[2] = test system: Micrococcus luteus ATCC4698; conditions: microdilution broth (CLSI, modified), Mueller-Hinton broth, 5 × 10^5 CFU/mL, 37 °C, 7–8 h, resazurin colour change, three independent experiments in triplicates
Experimental: (§1) Four Gram-positive bacteria: Listeria monocytogenes ATCC13932, Bacillus cereus ATCC11778, Staphylococcus aureus ATCC12900, and Micrococcus luteus ATCC4698 and three Gram-negative bacteria: Escherichia coli ATCC11775, Pectobacterium carotovorum MCC2112, and Salmonella typhimurium ATCC9844 were used in this study. These strains were stored at −80 °C in 25% (v/v) glycerol.
(§2) Antimicrobial assays against various bacterial cultures were done using the microdilution broth assay according to the Clinical and Laboratory Standards Institute (CLSI)[64] with some modifications. Mueller-Hinton broth was used to dilute the peptide stock and the bacterial inoculum. Inoculum was prepared from the mid-logarithmic phase culture. Each well of the microtiter plates received aliquots of 100 µL of the media containing different concentrations of peptide ranging from 0.3 to 300 µg/mL. The final concentration of bacteria in the wells was 5 × 10^5 Colony Forming Units (CFU) per mL. Ampicillin was used as positive control. For negative control, ultrapure water was used instead of peptides. Microtiter plates were incubated at 37 °C for 5–6 h with continuous shaking at 130 rpm (M. luteus cells were incubated for 7–8 h). The incubation time used for these assays was initially optimized using a 20-h incubation period. […] MIC assays were performed as three independent experiments in triplicates.

bovine trypsin [3] = target: T1, bovine trypsin (Bos taurus, UniProt P00760); conditions: BAPNA substrate, pH 8.2, 0.05 M Tris-HCl, 0.02 M CaCl2, 37 °C; double reciprocal and Dixon plot; mean and standard error of two biological replicates; listed as HSEP2-ΔK8
T1 sequence (P00760 24-246): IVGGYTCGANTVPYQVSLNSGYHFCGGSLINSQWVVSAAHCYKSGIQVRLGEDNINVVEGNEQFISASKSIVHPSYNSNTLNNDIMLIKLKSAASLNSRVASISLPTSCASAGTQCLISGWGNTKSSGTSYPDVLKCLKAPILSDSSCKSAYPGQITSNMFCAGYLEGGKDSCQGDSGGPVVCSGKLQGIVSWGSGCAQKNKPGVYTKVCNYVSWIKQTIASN
Experimental: (§3) The amidase activity of trypsin and its inhibition was assayed using the chromogenic substrate BAPNA at pH 8.2 in 0.05 M Tris-HCl containing 0.02 M CaCl2 at 37 °C. The assay reaction contained 50 µL of trypsin solution (40–50 μg of trypsin in 1 mM HCl), 50 µL of water, and 125 µL of the substrate. The reaction was carried out at 37 °C for 10 min and stopped by addition of 0.25 mL of 30% acetic acid. […] The trypsin solution was incubated with an aliquot of inhibitor for 10 min at 37 °C and reaction started by the addition of 125 µL substrate and incubated at 37 °C for 10 min. […] The effect of varying substrate concentration (BAPNA) on bovine trypsin in the presence of fixed concentrations of peptides was studied. The inhibition constants (Ki) were evaluated using the double reciprocal and Dixon plot of the data[65],[66]. Data presented are averages and standard error calculated from two biological replicate experiments.

B. cereus [4] = test system: B. cereus
Experimental: as §2
To determine the stability of HSEP3 at higher temperatures, 20 μL of HSEP3 (4 mg/mL) and 20 μL of Nisin in a 0.5 mL tube were autoclaved (for moist heat) at 121 °C for 20 min or heated at 95 °C for 30 min (for dry heat) and cooled to room temperature. Mixture was then used to test the antibacterial activity as previously described. Experiments were repeated in LB media to study the effect of complex media on antibacterial activity. All the experiments were repeated at least two times.

B. cereus spores = assay type: cell-based, Bacillus cereus; conditions: spore suspension, resazurin; repeated at least twice
Experimental: B. cereus spores were used to test the effect of peptides on spore germination. Spores were prepared by inoculating 3 mL MH media with B. cereus cells and incubating at 30 °C at 180 rpm for 12 h. 2.5 mL of the culture was inoculated into a 250 mL MH media and incubated at 30 °C for 72 h. Furthermore, culture was temperature-treated at 80 °C for 30 min to eliminate the vegetative cells. Spore suspension was stored at 4 °C until further use. Two microliters of spore suspension was used to test the effect of HSEP3 and Nisin on spore germination using resazurin. All experiments were repeated at least twice.

[5] = test system: human red blood cells (hRBCs); conditions: peptide 0 to 200 μg/mL, 4% hRBCs in PBS, 1 h, 37 °C, absorbance 414 nm, Triton X-100 = 100%; three biological replicates
Experimental: The hemolytic activity of the peptide was evaluated using human red blood cells (hRBCs). Erythrocytes were separated from 1 mL of blood by centrifugation at 1500 rpm for 10 min. Collected hRBCs were washed three times with PBS, diluted to 4% (v/v) in PBS. Hundred microliters of the hRBCs having peptides ranging from 4 to 200 µg/mL as added into 96-well microtiter plate. The plates were incubated for 1 h at 37 °C without agitation and centrifuged at 1500 rpm for 5 min. Aliquots (100 μL) of the supernatant were transferred to 96-well plates and absorbance was measured at 414 nm. PBS and 1% Triton X-100 were used as control for 0% and 100% hemolysis, respectively. Percentage of hemolysis was calculated as (AT − AC)/(AX − AC) × 100; where AT is the experimental absorbance of treated supernatants, AC is the control absorbance of PBS-treated cell supernatant, and AX is the absorbance of 0.1% (v/v) Triton X-100 lysed cells. Data presented are averages and standard error from three biological replicate experiments.

[6] = test system: Escherichia coli ATCC11775; conditions: microdilution broth, MH broth, 5 × 10^5 CFU/mL, 37 °C, 5–6 h, resazurin
Experimental: as §1, §2

[7] = test system: Bacillus cereus ATCC11778; conditions: microdilution broth, MH broth, 5 × 10^5 CFU/mL, 37 °C, 5–6 h, resazurin
Experimental: as §1, §2

[8] = test system: Salmonella typhimurium ATCC9844; conditions: microdilution broth, MH broth, 5 × 10^5 CFU/mL, 37 °C, 5–6 h, resazurin
Experimental: as §1, §2

[9] = test system: Pectobacterium carotovorum MCC2112; conditions: microdilution broth, MH broth, 5 × 10^5 CFU/mL, 37 °C, 5–6 h, resazurin
Experimental: as §1, §2

[10] = test system: Listeria monocytogenes ATCC13932; conditions: microdilution broth, MH broth, 5 × 10^5 CFU/mL, 37 °C, 5–6 h, resazurin
Experimental: as §1, §2

[11] = test system: Staphylococcus aureus ATCC12900; conditions: microdilution broth, MH broth, 5 × 10^5 CFU/mL, 37 °C, 5–6 h, resazurin
Experimental: as §1, §2

bovine trypsin [12] = target: T1, bovine trypsin; assay: biochemical; conditions: SEM
Experimental: as §3

Row | SMILES | PI uptake fluorescence intensity of treated bacterial cells (B. cereus [1]) | MIC (µg/mL) M. luteus ([2]; listed as HSEP2-ΔK8) | Ki (M) against bovine trypsin (bovine trypsin [3]) | Effect of steam heat on antibacterial activity (in complex media), MIC (B. cereus [4]; autoclaved at 121 °C for 20 min, LB media) [µg/mL] | Effect of steam heat on antibacterial activity (in MH media), MIC (B. cereus [4]; autoclaved at 121 °C for 20 min, MH media) [µg/mL] | Effect of dry heat on antibacterial activity, MIC (B. cereus [4]; heated at 95 °C for 30 min) [µg/mL] | Inhibition of B. cereus spore germination (MIC) (B. cereus spores) [µg/mL] | hemolytic activity [5] [%] | MIC Escherichia coli [6] [µg/mL] | MIC Bacillus cereus [7] [µg/mL] | MIC (µg/mL) M. luteus [2] [µg/mL] | MIC Salmonella typhimurium [8] [µg/mL] | MIC Pectobacterium carotovorum [9] [µg/mL] | MIC Listeria monocytogenes [10] [µg/mL] | MIC Staphylococcus aureus [11] [µg/mL] | Ki (bovine trypsin [12]) [nM]
1 | CC[C@H](C)[C@H](NC(=O)[C@@H](NC(=O)[C@@H](N)CO)C(C)C)C(=O)N[C@@H](Cc1ccccc1)C(=O)NCC(=O)N[C@H]1CSSC[C@@H](C(=O)N[C@@H](Cc2ccccc2)C(=O)N[C@H](C(=O)NCC(=O)N[C@@H](Cc2ccccc2)C(=O)N[C@@H](CCCCN)C(=O)O)C(C)C)NC(=O)[C@H]([C@@H](C)CC)NC(=O)[C@@H]2CCCN2C(=O)[C@@H]2CCCN2C(=O)[C@H]([C@@H](C)CC)NC(=O)[C@H](CO)NC(=O)[C@H]([C@@H](C)O)NC1=O [HSEP2-∆K8] (H-SVIFGCTSIPPICFVGFK-OH; disulfide 6-13; N-terminus and C-terminus assumed) | minimal fluorescence intensity | did not show any antibacterial activity | failed to show any trypsin inhibition |  |  |  |  |  |  |  |  |  |  |  |  | 
2 | CC[C@H](C)[C@H](NC(=O)[C@@H](NC(=O)[C@H](CO)NC(=O)[C@@H](N)CCCNC(=N)N)C(C)C)C(=O)N[C@@H](Cc1ccccc1)C(=O)NCC(=O)N[C@H]1CSSC[C@@H](C(=O)N[C@@H](Cc2ccccc2)C(=O)N[C@H](C(=O)NCC(=O)N[C@@H](Cc2ccccc2)C(=O)N[C@@H](CCCCN)C(=O)O)C(C)C)NC(=O)[C@H]([C@@H](C)CC)NC(=O)[C@@H]2CCCN2C(=O)[C@@H]2CCCN2C(=O)[C@H]([C@@H](C)CC)NC(=O)[C@H](CO)NC(=O)[C@H](CCCCN)NC(=O)[C@H]([C@@H](C)O)NC1=O [HSEP3] (H-RSVIFGCTKSIPPICFVGFK-OH; disulfide 7-15) |  |  |  | 50 | 12.5 | 12.5 | 12.5 | < 5 | 150 (≈ 68.3 µM) | 12.5 (≈ 5.69 µM) | 1.25 (≈ 0.569 µM) | 85 (≈ 38.7 µM) | 50 (≈ 22.8 µM) | 50 (≈ 22.8 µM) | 150 (≈ 68.3 µM) | 200
